# Source: patent publication US8440725B2, “Synergistic preparations based on mixtures of glycerol ether with aromatic alcohol for controlling mycobacteria” (Air Liquide Sante (International), priority 2002, dated 2013)
# System: Mycobacterium terrae (ATCC15755)
# Assay: Quantitative suspension test Mycobacterium terrae without load, room temperature
# Type: cell-based
# Conditions: 0.1% added to 30% strength ethanol, exposure time 60 minutes
# Description: Various aqueous disinfectants were tested with respect to their activity towards Mycobacterium terrae, cell count 1 to 3×10^9 in a quantitative suspension test without load. The following reduction factors were measured, a reduction factor>5 corresponding to a sufficient Tb activity. For this various amounts of ethanol were added to aqueous active compound solutions and after exposure for 15, 30 and 60 minutes were tested. For testing the tuberculocidal activity, the quantitative suspension test Mycobacterium terrae (ATCC15755) was used in accordance with the Deutsche Gesellscaft für Hygiene and Mikrobiologie [German Society for Hygiene and Microbiology] of 30 Apr. 1997 (Hyg. Med. 22, 1997, issue 6, pages 278ff.).
smiles,measurement,value
"CCCCC(CC)COCC(O)CO (stereo not shown) [SC 50, 1-(2-ethylhexyl) glycerol ether]",Tb activity (reduction factor>5 = sufficient),sufficiently Tb active
